Data set [1] deals with T1, Plasma renin activity (PRA) (Homo sapiens, UniProt P00797).
T1 construct: from tissue; host or cells: plasma of female double transgenic rats (human renin and angiotensinogen transgenes)
T1 sequence (P00797 67-406): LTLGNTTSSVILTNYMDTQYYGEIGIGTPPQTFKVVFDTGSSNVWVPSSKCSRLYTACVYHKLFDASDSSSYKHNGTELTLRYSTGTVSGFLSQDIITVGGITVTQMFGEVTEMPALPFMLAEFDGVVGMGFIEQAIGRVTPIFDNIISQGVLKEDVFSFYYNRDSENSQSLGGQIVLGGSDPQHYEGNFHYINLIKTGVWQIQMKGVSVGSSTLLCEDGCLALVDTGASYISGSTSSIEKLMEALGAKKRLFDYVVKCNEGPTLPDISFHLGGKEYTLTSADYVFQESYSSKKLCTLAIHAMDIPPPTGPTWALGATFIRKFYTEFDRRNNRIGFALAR
Briefly: Plasma renin activity (PRA) inhibition in dTG rats after TD delivery. The class given is in vivo, rat. Conditions: TD 10 mg in DMSO (33 mg/kg); PRA at T4h vs T0h. The method, then:
(§1) For transdermal delivery, double transgenic rats with implanted pressure transmitters were dosed with a single application on the shaved skin of the rat of vehicle (250 μl of 100% DMSO; n=4) or of the test compound (10 mg in 250 μl of 100% DMSO, i.e. 33 mg/kg; n=5). The rat was lightly sedated under 2.5% isoflurane anesthesia, and its back was shaved over a 4 cm^2 area. The animal was returned to his cage to recover from anesthesia. Twenty-four hours later, the rat was lightly sedated under 2.5% isoflurane anesthesia, and the shaved area disinfected with 3 passes of ethanol.
A blood sample (0.3 ml) was taken by tail bleed or jugular iv in the telemetrized dTGs, at T0h, T4h and T24h after TD delivery to determine test substance levels and bioavailability (estimated as area under the curve, or AUC) of the active substance in systemic circulation. Plasma renin activity (PRA) was also measured at T0h and T4h. The effect of the test substance on PRA is expressed as the percentage of inhibition of PRA at T4h vs T0h.

In data set [2] the test system is female double transgenic rats (transgenic for human renin and angiotensin). Briefly: Telemetry of mean arterial blood pressure after oral vs transdermal delivery in double transgenic rats. In kind it is in vivo, rat. Conditions: for ABC36h: area between curves of MAP. As for the experimental part:
Female double transgenic rats (rats transgenic for human renin and […] (see, e.g., Bohlender et al., J Am Soc Nephrol 11:2056 (2000)) were developed. All animals were maintained under identical conditions and had free access to normal pelleted rat chow and water. Rats were initially treated with enalapril (1 mg/kg/day), starting 3 weeks after birth and during 9 weeks. Telemetry transmitters are implanted within 2 to 4 weeks after cessation of enalapril treatment. After approximately two weeks following cessation of enalapril treatment, the double transgenic rats are hypertensive with mean arterial blood pressures in the range of 160-170 mmHg.
Transmitter implantation—The rats were anesthetized using isoflurane (via inhalation, 2-3%) The pressure transmitter was implanted under aseptic conditions into the peritoneal cavity with the sensing catheter placed in the descending aorta below the renal arteries pointing upstream. The transmitter was sutured to the abdominal musculature, the skin closed, and the rats were individually housed in a cage, placed on a telemetry receiver pad to enable collection of the blood pressure data during recovery from anesthesia and thereafter. The rats were single-caged for the duration of the recording of telemetry data.
Telemetry System—Telemetry units were obtained from Data Sciences International (DSI, St. Paul, Minn.). […] The tip of the catheter was filled with a viscous gel that prevents blood reflux. The implants (length=2.5 cm, diameter=1.2 cm) weighed 9 g and have a typical battery life of 6 months. A receiver platform (RPC-1, DSI) connected the radio signal to digitized input that was sent to a dedicated personal computer. Arterial pressures were calibrated by using an input from an ambient-pressure reference (APR-1, DSI). Systolic, mean and diastolic blood pressure was expressed in millimeter of mercury (mmHg).
Telemetry data analysis—Signals received by the receivers were digitized for 10 seconds every 5 minutes, at 500 Hz. From this signal, mean arterial pressure (MAP), systolic and diastolic blood pressure (SBP and DPB), pulse pressure (PP), heart rate (HR) and activity (ACT) were derived. A one-hour moving average of the data was then performed by the DSI analysis software. Data were then exported to an Excel template for the calculation of group statistics, areas between curves (ABC), maximal effect and duration of MAP reduction.
Drug administration—For oral delivery, double transgenic rats with implanted pressure transmitters were dosed by oral gavage with a single bolus of vehicle (0.5% methocel; 5 ml/kg) or of the test substance (30 mg/5 ml/kg) (n=5 per group). After dosing, the rat was returned to his cage. Blood pressure data were collected up to 5 days after oral dosing.
as §1
After evaporation of the ethanol, a volume of 250 μl of 100% DMSO only, or of the compound dissolved in a 100% DMSO solution was applied over the shaved area using a micropipette. After complete evaporation of the DMSO solution (within 5 min after application), an occlusive transparent, waterproof film (OpSite) was taped to the back of the animal over the shaved area, and a jacket was fitted on the animal. Isoflurane inhalation was stopped, and the animal individually caged for telemetry data collection. Blood pressure data were collected up to 5 days after application of the compound/DMSO solution.

Data set [3] can be described thus: Test substance levels / bioavailability (AUC) in systemic circulation of telemetrized dTG rats. In kind it is in vivo. As to conditions: double transgenic (dTG), rat, T24h, read-out: AUC24h.
Data set [4] has as its target T2, Human recombinant renin (Homo sapiens, UniProt P00797).
T2 construct: purchased Proteos
T2 sequence (P00797 67-406): T1 sequence (P00797 67-406)
Description: Inhibition of human recombinant renin (buffer). As to conditions: 100 pM renin, 50 mM MOPS pH 7.4, 37° C., 3 hours; read-out: Human Renin IC50 (buffer). The class given is biochemical. As for the experimental part:
Fluorescence is measured at times 0 and 3 hours with a SpectraMax Gemini EM reader set at an excitation wavelength of 328 nm and at an emission wavelength of 388 nm. Background fluorescence at t=0 is subtracted from the measurement at t=3 hours. Inhibitory activity of the compounds is expressed as IC50.

Data set [5] addresses T3, recombinant renin in human plasma (Homo sapiens, UniProt P00797).
T3 construct: purchased Proteos
T3 sequence (P00797 67-406): T1 sequence (P00797 67-406)
Description: Inhibition of renin in human plasma. The class given is biochemical. As to conditions: human EDTA plasma, 1 nM recombinant renin added, 37° C., 1 hour; read-out: Human Renin IC50 (plasma). As for the experimental part: Human EDTA-collected plasma is rapidly thawed in warm water and centrifuged at 2900 g for 15 minutes at 4° C. The supernatant is collected and recombinant renin (Proteos) is added at a final concentration of 1 nM. […] The plate is incubated at 37° C. for 1 hour. […] Background fluorescence at t=0 is subtracted from the measurement at t=1 hour. Inhibitory activity of the compounds is expressed as IC50.

[6] abbreviates: PO, single oral gavage 30 mg/5 ml/kg in 0.5% methocel.
Where [7] appears, read: TD, single application 10 mg in 250 μl 100% DMSO (33 mg/kg) on shaved skin.

Where two headings read alike, the source gives them in different places.

Here are results for three compounds from patent publication US8889714B2, “3,4-substituted piperidine derivatives as renin inhibitors” (Actelion Pharmaceuticals Ltd., priority 2008, dated 2014).

In general, IC50 refers to the concentration needed to halve the response being measured.

Regarding `COCCCc1cc(CN(C(=O)[C@H]2CNCC[C@@H]2c2ccn(C)c(=O)c2)C2CC2)cc(Br)c1C` (relative stereo) [test substance, trans-N-({3-Bromo-4-methyl-5-[3-(methyloxy)propyl]phenyl}methyl)-N-cyclopropyl-4-(1-methyl-2-oxo-1,2-dihydro-4-pyridinyl)-3-piperidinecarboxamide], the “PRA inhibition at 4 h” value in data set [1] is on record as 98%. Also, in data set [2] (setting [6]), the “duration of MAP reduction” value is 2 days, the “max MAP decrease” value stood at 57 mmHg and the ABC36h came out at 1143 mmHg * h. Also, in data set [2] (setting [7]), the “duration of MAP reduction” value amounted to 1 days, the “max MAP decrease” value was found to be 30 mmHg and the ABC36h is given as 514 mmHg * h. In addition, the AUC(0-t) in data set [3] (topical, TD 10 mg in DMSO (33 mg/kg), blood samples at T0h, T4h) was found to be 2900 nM·h. Besides, the AUC(0-t) in data set [3] (PO 30 mg/kg, blood samples at T0, T6h) is 1800 nM·h.

As to `Cn1ccc([C@@H]2CCNC[C@H]2C(=O)N(Cc2c[nH]c3cccc(F)c23)C2CC2)cc1=O` (relative stereo) [Example 75, trans-N-Cyclopropyl-N-[(4-fluoro-1H-indol-3-yl)methyl]-4-(1-methyl-2-oxo-1,2-dihydro-4-pyridinyl)-3-piperidinecarboxamide], the IC50 in data set [4] came to 0.0127 µM; in data set [5], 0.0084 µM.

In the case of `COCCCc1cc(CN(C(=O)[C@@H]2CNCC[C@H]2c2cc(=O)n(C)c(C)c2C)C2CC2)cc(OCCOC)c1` (relative stereo) [Example 13, trans-N-Cyclopropyl-N-({3-{[2-(methyloxy)ethyl]oxy}-5-[3-(methyloxy)propyl]phenyl}methyl)-4-(1,5,6-trimethyl-2-oxo-1,2-dihydro-4-pyridinyl)-3-piperidinecarboxamide], the 50% inhibitory concentration (IC50) in data set [4] was 0.025 µM; in data set [5] it was 0.08 µM.
